A word on the IC50: it is the concentration needed to halve the response being measured.

Structures are written as SMILES.

In this assay the target is JAK1 (Homo sapiens (Human), UniProt P23458). Description: Jak biochemical HTRF assay, JAK1. The conditions noted are these: HTRF biochemical assay, recombinant GST-tagged catalytic domain; read-out: JAK1 IC50. Here is the method: Jak Biochemical HTRF Assay Protocol
Chain of JAK1 (P23458 875-1153): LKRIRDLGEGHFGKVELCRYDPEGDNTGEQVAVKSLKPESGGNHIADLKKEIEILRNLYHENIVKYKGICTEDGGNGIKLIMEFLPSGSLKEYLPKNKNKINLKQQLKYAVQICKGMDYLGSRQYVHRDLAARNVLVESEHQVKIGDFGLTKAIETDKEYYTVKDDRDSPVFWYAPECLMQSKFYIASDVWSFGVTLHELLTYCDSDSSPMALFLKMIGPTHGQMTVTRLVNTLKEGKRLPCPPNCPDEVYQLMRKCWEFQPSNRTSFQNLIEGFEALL
The ability of compounds to inhibit the activity of JAK1, JAK2, JAK3, and Tyk2 was measured using a recombinant purified GST-tagged catalytic domain for each enzyme (Invitrogen JAK1 #M4290, JAK2 #M4290, JAK3 #M4290, Tyk2 #M4290) in an HTRF format biochemical assay. […] The basic assay protocol is as follows: First, 250 nL of diluted compounds in DMSO were dispensed into the wells of a dry 384-well Black plate (Greiner #781076) using a Labcyte Echo 555 acoustic dispenser. Subsequent reagent additions employed an Agilent Bravo. […] After equilibration, 2 μL of 10×ATP in 1× assay buffer was added to initiate the kinase reaction and the plates were shaken and then incubated at room temperature for 120 minutes. […] Plates were shaken and centrifuged and then incubated 60 minutes at room temperature and then read on a Perkin Elmer Envision (λex=337 nm, λem=665 and 615 nm, TRF delay time=20 μs). HTRF signal=10,000*665 nm reading/615 nm reading. After normalization to untreated controls, the percent inhibition of the HTRF signal at each compound concentration was calculated. The plot of percent inhibition versus the log of compound concentration was fit with a 4-parameter dose response equation to calculate IC50 values.
Final Reaction Conditions were:
Examples of the instant invention were evaluated in JAK1 and JAK2 in vitro binding assays.
On to `CC(C)OC(=O)C(C)(C)C(O)(c1ccc(Nc2nn([C@H]3CCCC[C@@H]3C#N)c3cc[nH]c(=O)c23)cc1)C(F)(F)F` (single isomer, unassigned) [Example 3-119, (R or S) Isopropyl 3-(4-((1-((1S,2S)-2-cyanocyclohexyl)-4-oxo-4,5-dihydro-1H-pyrazolo[4,3-c]pyridin-3-yl)amino)phenyl)-4,4,4-trifluoro-3-hydroxy-2,2-dimethylbutanoate], for which the concentration for half-maximal inhibition (IC50) was determined as 5.3 nM.
Turning to `Cc1cc(Nc2nn([C@H]3CCCC[C@@H]3C#N)c3cc[nH]c(=O)c23)ccc1C(C(C)C)n1nccn1` (single isomer, unassigned) [Example 15-35, (1S,2S)-2-[3-({3-methyl-4-[(1S or 1R)-2-methyl-1-(2H-1,2,3-triazol-2-yl)propyl]phenyl}amino)-4-oxo-4,5-dihydro-1H-pyrazolo[4,3-c]pyridin-1-yl]cyclohexanecarbonitrile], the IC50 was found to be 1.2 nM.
In the case of `CC1c2cc(Nc3nn([C@H]4CCCC[C@@H]4C#N)c4cc[nH]c(=O)c34)ccc2S(=O)(=O)N1CC(F)(F)F` (single isomer, unassigned) [Example 3-129, (1S,2S)-2-(3-(((R or S)-3-methyl-1,1-dioxido-2-(2,2,2-trifluoroethyl)-2,3-dihydrobenzo[d]isothiazol-5-yl)amino)-4-oxo-4,5-dihydro-1H-pyrazolo[4,3-c]pyridin-1-yl)cyclohexanecarbonitrile] it was 1.1 nM.
For `CC(C)S(=O)(=O)c1ccc(Nc2nn([C@H]3CCCC[C@@H]3C#N)c3cc[nH]c(=O)c23)cc1` [Example 3-141, (1S,2S)-2-[3-({4-[(1-methylethyl)sulfonyl]phenyl}amino)-4-oxo-4,5-dihydro-1H-pyrazolo[4,3-c]pyridin-1-yl]cyclohexanecarbonitrile] the value was 0.15 nM; for `CC(C)(C)OC(=O)CCN1Cc2ccc(Nc3nn([C@H]4CCCC[C@@H]4C#N)c4cc[nH]c(=O)c34)cc2C1` [Example 3-163, tert-butyl 3-[5-({1-[(1S,2S)-2-cyanocyclohexyl]-4-oxo-4,5-dihydro-1H-pyrazolo[4,3-c]pyridin-3-yl}amino)-1,3-dihydro-2H-isoindol-2-yl]propanoate], 0.49 nM.
On to `N#C[C@H]1CCC[C@@H]1n1nc(Nc2ccc(C3(C(F)(F)F)CCCCN3)cc2)c2c(=O)[nH]ccc21` (single isomer, unassigned) [Example 15-72, (1S,2S)-2-[4-oxo-3-({4-[(2R or 2S)-2-(trifluoromethyl)piperidin-2-yl]phenyl}amino)-4,5-dihydro-1H-pyrazolo[4,3-c]pyridin-1-yl]cyclopentanecarbonitrile], for which the IC50 worked out at 0.077 nM.
For `CC(C)(CO)CN1Cc2cc(Nc3nn([C@H]4CCCC[C@@H]4C#N)c4cc[nH]c(=O)c34)ccc2S1(=O)=O` [Example 3-82, (1S,2S)-2-(3-{[2-(3-hydroxy-2,2-dimethylpropyl)-1,1-dioxido-2,3-dihydro-1,2-benzisothiazol-5-yl]amino}-4-oxo-4,5-dihydro-1H-pyrazolo[4,3-c]pyridin-1-yl)cyclohexanecarbonitrile] the value was 0.11 nM; for `CC1(C)C(O)c2cc(Nc3nn([C@H]4CCCC[C@@H]4C#N)c4cc[nH]c(=O)c34)ccc2S1(=O)=O` (single isomer, unassigned) [Example 3-173, (1S,2S)-2-(3-{[(3R or 3S)-3-hydroxy-2,2-dimethyl-1,1-dioxido-2,3-dihydro-1-benzothiophen-5-yl]amino}-4-oxo-4,5-dihydro-1H-pyrazolo[4,3-c]pyridin-1-yl)cyclohexanecarbonitrile], 0.094 nM; for `N#C[C@@H]1CCCCC[C@H]1n1nc(Nc2ccc3c(c2)CN(C(=O)N2CCCCC2)C3)c2c(=O)[nH]ccc21` (single isomer, unassigned) [Example 15-53, (1R,2R or 1S,2S)-2-(4-oxo-3-{[2-(piperidin-1-ylcarbonyl)-2,3-dihydro-1H-isoindol-5-yl]amino}-4,5-dihydro-1H-pyrazolo[4,3-c]pyridin-1-yl)cycloheptanecarbonitrile], 0.42 nM.
For `N#C[C@H]1CCCC[C@@H]1n1nc(Nc2cccc(CN)c2)c2c(=O)[nH]ccc21` [Example 6-1, (1S,2S)-2-(3-((3-(Aminomethyl)phenyl)amino)-4-oxo-4,5-dihydro-1H-pyrazolo[4,3-c]pyridin-1-yl)cyclohexanecarbonitrile] the value was 1.5 nM; for `CC(C)(CCO)N1Cc2cc(Nc3nn([C@H]4CCCC[C@@H]4C#N)c4cc[nH]c(=O)c34)ccc2S1(=O)=O` [Example 3-81, (1S,2S)-2-(3-{[2-(3-hydroxy-1,1-dimethylpropyl)-1,1-dioxido-2,3-dihydro-1,2-benzisothiazol-5-yl]amino}-4-oxo-4,5-dihydro-1H-pyrazolo[4,3-c]pyridin-1-yl)cyclohexanecarbonitrile], 0.055 nM.
In the case of `N#C[C@@H]1C[C@@H](O)CC[C@H]1n1nc(Nc2ccc(C(F)(F)F)cc2)c2c(=O)[nH]ccc21` [Example 3-89, (1R,2R,5S)-5-hydroxy-2-(4-oxo-3-((4-(trifluoromethyl)phenyl)amino)-4,5-dihydro-1H-pyrazolo[4,3-c]pyridin-1-yl)cyclohexanecarbonitrile] it was 9.8 nM; in that of `N#C[C@H]1CCCC[C@@H]1n1nc(Nc2ccc(F)cc2)c2c(=O)[nH]ccc21` (racemic) [Example 2-1, (trans)-2-{3-[(4-Fluorophenyl)amino]-4-oxo-4,5-dihydro-1H-pyrazolo[4,3-c]pyridin-1-yl}cyclohexanecarbonitrile], 0.56 nM.
Regarding `N#C[C@H]1CCCC[C@@H]1n1nc(Nc2ccc(C3(C(F)(F)F)CCCN3)cc2)c2c(=O)[nH]ccc21` (single isomer, unassigned) [Example 15-62, (1S,2S)-2-[4-oxo-3-({4-[(2S or 2R)-2-(trifluoromethyl)pyrrolidin-2-yl]phenyl}amino)-4,5-dihydro-1H-pyrazolo[4,3-c]pyridin-1-yl]cyclohexanecarbonitrile], the IC50 stood at 0.11 nM.
In the case of `N#C[C@H]1C[C@@H](N2CC(O)C2)CC[C@@H]1n1nc(Nc2ccc(Cl)cc2)c2c(=O)[nH]ccc21` [Example 5-20, (1S,2S,5S)-2-(3-((4-chlorophenyl)amino)-4-oxo-4,5-dihydro-1H-pyrazolo[4,3-c]pyridin-1-yl)-5-(3-hydroxyazetidin-1-yl)cyclohexanecarbonitrile] it was 0.14 nM; in that of `N#C[C@H]1C[C@H](N2CC(O)C2)CC[C@@H]1n1nc(Nc2ccc(Cl)cc2)c2c(=O)[nH]ccc21` [Example 5-19, (1S,2S,5R)-2-(3-((4-chlorophenyl)amino)-4-oxo-4,5-dihydro-1H-pyrazolo[4,3-c]pyridin-1-yl)-5-(3-hydroxyazetidin-1-yl)cyclohexanecarbonitrile], 0.11 nM; in that of `N#C[C@H]1CCC[C@@H]1n1nc(Nc2ccc(C3(C(F)(F)F)CCCCN3)cc2)c2c(=O)[nH]ccc21` (single isomer, unassigned) [Example 15-71, (1S,2S)-2-[4-oxo-3-({4-[(2S or 2R)-2-(trifluoromethyl)piperidin-2-yl]phenyl}amino)-4,5-dihydro-1H-pyrazolo[4,3-c]pyridin-1-yl]cyclopentanecarbonitrile], 0.069 nM.
For `CC(C)(C)S(=O)(=O)c1ccc(Nc2nn([C@H]3CCCC[C@@H]3C#N)c3cc[nH]c(=O)c23)cc1` [Example 3-143, (1S,2S)-2-(3-{[4-(tert-butylsulfonyl)phenyl]amino}-4-oxo-4,5-dihydro-1H-pyrazolo[4,3-c]pyridin-1-yl)cyclohexanecarbonitrile] the value was 0.12 nM; for `N#C[C@H]1CCCC[C@@H]1n1nc(Nc2ccc3c(c2)CN(C2CCOCC2)S3(=O)=O)c2c(=O)[nH]ccc21` [Example 15-44, (1S,2S)-2-(3-{[1,1-dioxido-2-(tetrahydro-2H-pyran-4-yl)-2,3-dihydro-1,2-benzisothiazol-5-yl]amino}-4-oxo-4,5-dihydro-1H-pyrazolo[4,3-c]pyridin-1-yl)cyclohexanecarbonitrile], 0.057 nM; for `COCC(C)(C)CN1Cc2cc(Nc3nn([C@H]4CCCCC[C@@H]4C#N)c4cc[nH]c(=O)c34)ccc2S1(=O)=O` (single isomer, unassigned) [Example 15-49, (1S,2S or 1R,2R)-2-(3-{[2-(3-methoxy-2,2-dimethylpropyl)-1,1-dioxido-2,3-dihydro-1,2-benzisothiazol-5-yl]amino}-4-oxo-4,5-dihydro-1H-pyrazolo[4,3-c]pyridin-1-yl)cycloheptanecarbonitrile], 5.1 nM.
Turning to `N#C[C@H]1CCCC[C@@H]1n1nc(Nc2ccc([C@]3(O)CC[C@H](C(=O)O)CC3)cc2)c2c(=O)[nH]ccc21` [Example 17-2], the IC50 amounted to 0.53 nM.
In the case of `C[C@H](N[C@H]1CC[C@@H](n2nc(Nc3ccc(C(F)(F)F)cc3)c3c(=O)[nH]ccc32)[C@H](C#N)C1)C1CC1` [Example 5-13, (1R,2R,5S)-5-(((S)-1-cyclopropylethyl)amino)-2-(4-oxo-3-((4-(trifluoromethyl)phenyl)amino)-4,5-dihydro-1H-pyrazolo[4,3-c]pyridin-1-yl)cyclohexanecarbonitrile] it was 97 nM.

(Values after US9725445B2, “Cycloalkyl nitrile pyrazolo pyridones as Janus kinase inhibitors” (Merck Sharp & Dohme Corp., priority 2013, dated 2017).)
